# Patent publication US20110086834A1, “ALKYNYL ALCOHOLS AS KINASE INHIBITORS” (AMGEN INC., priority 2008, published 2011)
# Target: T1, NIK (Homo sapiens, UniProt Q99558)
# T1 construct: Both assays utilize a truncated form of NIK containing only the catalytic domain; made in house; host or cells: baculovirus expression system (insect cells implied)
# Assay: chemiluminescent (CL) assay for NIK IC50 determination
# Assay type: biochemical
# Settings: truncated NIK (catalytic domain only), autophosphorylation; 50 nM biotinylated-NIK; 50 μM ATP; room temperature, 1 hour
# Method: Two formats of biochemical assays are implemented: (1) chemiluminescent (CL) assay for NIK IC50 determination; (2) homogenous time resolved fluorescence (HTRF) assay for NIK Ki measurement. […] The NIK proteins are purified with baculovirus expression system and further biotinylated with N-hydroxysuccinamide biotin ester (Sigma). […] The reaction mixtures are then immobilized on a Streptavidin-coated plate (Pierce). […] For the HTRF assay, 10 nM of enzyme are incubated with compounds in the presence of 20, 100, 200, or 500 μM of ATP in a buffer with 20 mM of Hepes pH7.5, 20 mM of MgCl2, 0.2% of Tween 20 and 1 mM of DTT at room temperature for 2 hours.
# T1 sequence (Q99558 400-655 limits assumed): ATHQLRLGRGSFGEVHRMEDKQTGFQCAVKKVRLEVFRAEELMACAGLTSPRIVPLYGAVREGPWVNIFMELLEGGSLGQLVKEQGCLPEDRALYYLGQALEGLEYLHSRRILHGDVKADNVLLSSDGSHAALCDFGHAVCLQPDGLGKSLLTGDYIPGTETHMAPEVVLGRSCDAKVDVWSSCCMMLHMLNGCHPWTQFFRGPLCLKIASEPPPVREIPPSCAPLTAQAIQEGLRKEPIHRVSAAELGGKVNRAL
row,SMILES,IC50
1,"COCCn1cc(-c2nc(N)ncc2Cl)c2cc(C#CC(C)(O)c3nccs3)ccc21 (centres unmarked) [Example 115, 4-(3-(2-amino-5-chloropyrimidin-4-yl)-1-(2-methoxyethyl)-1H-indol-5-yl)-2-(thiazol-2-yl)but-3-yn-2-ol]",< 1000 nM
2,"CN1CCC2(C1)CN(c1ccnc(N)n1)c1cc(C#CC3(O)CCCC3)ccc12 (racemic) [Example 189, (rac)-1-((1-(2-Amino-4-pyrimidinyl)-1′-methyl-1,2-dihydrospiro[indole-3,3′-pyrrolidin]-6-yl)ethynyl)cyclopentanol]",< 1000 nM
3,"COCCn1cc(-c2nc(N)ncc2Cl)c2cc(C#CC3(O)CC[C@@H](C)C3)ccc21 (stereo partly drawn) [Example 140, (3R)-1-(2-(3-(2-amino-5-chloropyrimidin-4-yl)-1-(2-methoxyethyl)-1H-indol-5-yl)ethynyl)-3-methylcyclopentanol]",< 1000 nM
4,"Nc1ncc(Cl)c(-c2cn(C(=O)c3cccnc3)c3ccc(C#CC4(O)CCCC4)cc23)n1 [Example 123, (3-(2-amino-5-chloropyrimidin-4-yl)-5-(2-(1-hydroxycyclopentyl)ethynyl)-1H-indol-1-yl)(pyridin-3-yl)methanone]",< 1000 nM
5,"Nc1ncc(Cl)c(-c2cn(C3CCOC3)c3ccc(C#CC4(O)CCCC4)cc23)n1 (centres unmarked) [Example 138, 1-(2-(3-(2-amino-5-chloropyrimidin-4-yl)-1-(tetrahydrofuran-3-yl)-1H-indol-5-yl)ethynyl)cyclopentanol]",< 1000 nM
6,"CC1(CCO)CN(c2nc(N)ncc2Cl)c2cc(C#CC3(O)CCCC3)ccc21 (centres unmarked) [Example 51, 1-((1-(2-amino-5-chloro-4-pyrimidinyl)-3-(2-hydroxyethyl)-3-methyl-2,3-dihydro-1H-indol-6-yl)ethynyl)cyclopentanol]",< 1000 nM

# Other lines, results leading:
row,IC50,SMILES
1,< 1000 nM,"O=C(c1ccc(Nc2nccc(N3CCc4ccc(C#CC5(O)CCCC5)cc43)n2)cc1)N1CCOCC1 [Example 263, 1-((1-(2-((4-(4-morpholinylcarbonyl)phenyl)amino)-4-pyrimidinyl)-2,3-dihydro-1H-indol-6-yl)ethynyl)cyclopentanol]"
2,< 1000 nM,"CC(O)(C#Cc1ccc2c(c1)N(c1nc(N)ncc1Cl)CC2)c1nccs1 (centres unmarked) [Example 286, 4-(1-(2-Amino-5-chloro-4-pyrimidinyl)-2,3-dihydro-1H-indol-6-yl)-2-(1,3-thiazol-2-yl)-3-Butyn-2-ol]"
3,< 1000 nM,"COCCOc1cnc(N)nc1-c1c[nH]c2ccc(C#CC(O)(c3ccccc3)C(F)(F)F)cc12 (centres unmarked) [Example 235, 4-(3-(2-Amino-5-(2-methoxyethoxy)-4-pyrimidinyl)-1H-indol-5-yl)-1,1,1-trifluoro-2-phenyl-3-butyn-2-ol]"

# Target: T1, NIK
# Assay: homogenous time resolved fluorescence (HTRF) assay for NIK Ki measurement
# Assay type: biochemical
# Settings: truncated NIK (catalytic domain only), autophosphorylation; 10 nM enzyme; 20, 100, 200 or 500 μM ATP; room temperature, 2 hours; read-out: Ki activity in the homogenous time resolved fluorescence (HTRF) assay for NIK
row,SMILES,Ki
1,"COc1cc(C#CC2(O)CCCC2)cc2c1CCN2c1nc(N)ncc1F [Example 18, 1-(2-(1-(2-amino-5-fluoropyrimidin-4-yl)-4-methoxyindolin-6-yl)ethynyl)cyclopentanol]",< 1000 nM
2,"N#Cc1ccc(-c2[nH]c3ccc(C#CC4(O)CCCC4)cc3c2-c2ccnc(N)n2)cc1 [Example 94, 4-(3-(2-aminopyrimidin-4-yl)-5-(2-(1-hydroxycyclopentyl)ethynyl)-1H-indol-2-yl)benzonitrile]",< 1000 nM
3,"CC(O)(C#Cc1ccc2c(c1)N(c1nc(N)ncc1Cl)CC2)c1cc(F)ccn1 (centres unmarked) [Example 11, 4-(1-(2-amino-5-chloropyrimidin-4-yl)indolin-6-yl)-2-(4-fluoropyridin-2-yl)but-3-yn-2-ol]",1000 to 30000 nM
4,"COCCOc1cnc(N)nc1-c1c[nH]c2ccc(C#CC3(O)CCOCC3)cc12 [Example 226, 4-((3-(2-Amino-5-(2-methoxyethoxy)-4-pyrimidinyl)-1H-indol-5-yl)ethynyl)tetrahydro-2H-pyran-4-ol]",1000 to 30000 nM
5,"Cc1cc([C@@](C)(O)C#Cc2ccc(F)c(Nc3nc(N)ncc3Cl)c2)no1 [Example 177, (S)-4-(3-(2-amino-5-chloropyrimidin-4-ylamino)-4-fluorophenyl)-2-(5-methylisoxazol-3-yl)but-3-yn-2-ol]",1000 to 30000 nM
6,"CC(O)(C#Cc1ccc2c(c1)N(c1nc(N)ncc1Cl)CC2(C)CO)c1nccs1 (single isomer, unassigned) [Example 53, 4-((3 S*)-1-(2-amino-5-chloro-4-pyrimidinyl)-3-(hydroxymethyl)-3-methyl-2,3-dihydro-1H-indol-6-yl)-2-(1,3-thiazol-2-yl)-3-butyn-2-ol]",< 1000 nM
7,"CC(O)(C#Cc1ccc2c(c1)N(c1ncns1)CC2(C)C)c1nccs1 (centres unmarked) [Example 12, 4-(3,3-dimethyl-1-(1,2,4-thiadiazol-5-yl)indolin-6-yl)-2-(thiazol-2-yl)but-3-yn-2-ol]",< 1000 nM

# More lines, now with the values ahead:
row,Ki,SMILES
1,< 1000 nM,"Cn1c2c(c3cc(C#CC4(O)CCCC4)ccc31)-c1nc(N)ncc1CN(Cc1ccccn1)C2=O [Example 247, 2-Amino-1′-((1-hydroxycyclopentyl)ethynyl)-8-methyl-6-(2-pyridinylmethyl)-5,8-dihydropyrimido[4′,′:5,6]azepino[3,4-b]indol-7(6H)-one]"
2,< 1000 nM,"OC1(C#Cc2ccc3ccn(-c4ccnc(Nc5ccccc5)n4)c3c2)CCCC1 [Example 256, 1-((1-(2-(Phenylamino)-4-pyrimidinyl)-1H-indol-6-yl)ethynyl)cyclopentanol]"
3,< 1000 nM,"Cc1ccsc1C(C)(O)C#Cc1ccc2c(c1)N(c1ccnc(N)n1)CC2 (centres unmarked) [Example 278, 4-(1-(2-Amino-4-pyrimidinyl)-2,3-dihydro-1H-indol-6-yl)-2-(3-methyl-2-thienyl)-3-butyn-2-ol]"
4,< 1000 nM,"Nc1ncc(Cl)c(-c2cnc3ccc(C#CC4(O)CCCC4)cn23)n1 [Example 298, 1-((3-(2-amino-5-chloro-4-pyrimidinyl)imidazo[1,2-a]pyridin-6-yl)ethynyl)-cyclopentanol]"
